Laboratory results reported in patent US20230192705A1, “SHP2 INHIBITORS, COMPOSITIONS AND USES THEREOF” (Betta Pharmaceuticals Co., Ltd, priority 2020, published 2023).

Biological target: T1, SHP2 (Homo sapiens, UniProt Q06124)
T1 sequence (Q06124 1-593): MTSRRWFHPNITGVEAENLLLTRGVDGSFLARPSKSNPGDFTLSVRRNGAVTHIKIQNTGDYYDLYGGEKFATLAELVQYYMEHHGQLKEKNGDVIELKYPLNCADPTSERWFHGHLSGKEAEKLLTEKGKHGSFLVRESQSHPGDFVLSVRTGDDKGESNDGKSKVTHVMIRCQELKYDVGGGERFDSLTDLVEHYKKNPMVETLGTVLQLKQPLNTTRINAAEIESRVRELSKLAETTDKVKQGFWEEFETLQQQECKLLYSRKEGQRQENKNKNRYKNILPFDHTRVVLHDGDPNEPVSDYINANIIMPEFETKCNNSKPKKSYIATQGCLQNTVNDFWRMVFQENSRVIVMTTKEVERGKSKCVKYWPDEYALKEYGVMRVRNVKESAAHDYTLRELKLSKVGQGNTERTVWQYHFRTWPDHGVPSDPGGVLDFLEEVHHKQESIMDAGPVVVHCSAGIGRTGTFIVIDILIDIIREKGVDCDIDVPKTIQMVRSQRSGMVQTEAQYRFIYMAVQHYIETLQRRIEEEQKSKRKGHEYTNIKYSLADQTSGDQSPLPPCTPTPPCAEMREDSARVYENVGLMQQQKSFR
Experiment: SHP2 allosteric inhibitor enzyme activity assay (DiFMUP fluorescence)
Assay type: biochemical
In short: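 SHP2 activated by 0.5 μM IRS1_pY1172(dPEG8)pY1222 peptide, 0.2 ng enzyme per well, 1 h at room temperature with compound (1 μM top, 3-fold series), then DiFMUP substrate 1 h. Buffer: 60 mM HEPES, 75 mM NaCl, 75 mM KCl, 0.05% BRIJ-35, 1 mM EDTA, 5 mM DTT. Fluorescence ex 340/em 450 nm; IC50 by variable-slope fit.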

IC50 (class symbols) [nM] | IC50 (numeric values) [nM] | Structure (SMILES)
20 to 60 |  | N[C@@H]1c2ccccc2CC12CCN(c1nc3[nH]nc(C4(c5ccccc5)CCCC4)c3c(=O)[nH]1)CC2 [Example 97, (S)-6-(1-amino-1,3-dihydrospiro[indene-2,4′-piperidin]-1′-yl)-3-(1-phenylcyclopentyl)-1,5-dihydro-4H-pyrazolo[3,4-d]pyrimidin-4-one]
20 to 60 |  | N[C@@H]1c2ccccc2CC12CCN(c1nc3[nH]nc(C4(c5cnn(-c6ccccc6)c5)CC4)c3c(=O)[nH]1)CC2 [Example 56, (S)-6-(1-amino-1,3-dihydrospiro[indene-2,4′-piperidin]-1′-yl)-3-(1-(1-phenyl-1H-pyrazol-4-yl)cyclopropyl)-1,5-dihydro-4H-pyrazolo[3,4-d]pyrimidin-4-one]
≤ 20 |  | N[C@@H]1c2ccccc2CC12CCN(c1nc3[nH]nc(C4=C(F)CCc5ncccc54)c3c(=O)[nH]1)CC2 [Example 186, (S)-6-(1-amino-1,3-dihydrospiro[indene-2,4′-piperidin]-1′-yl)-3-(6-fluoro-7,8-dihydroquinolin-5-yl)-1,5-dihydro-4H-pyrazolo[3,4-d]pyrimidin-4-one]
20 to 60 |  | C[C@@H]1OCC2(CCN(c3nc4[nH]nc(C5(c6ccc(O)cc6)CC5)c4c(=O)[nH]3)CC2)[C@@H]1N [Example 311, 6-((3S,4S)-4-amino-3-methyl-2-oxa-8-azaspiro[4.5]decan-8-yl)-3-(1-(4-hydroxyphenyl)cyclopropyl)-1,5-dihydro-4H-pyrazolo[3,4-d]pyrimidin-4-one]
 | 1.9 | N[C@@H]1c2ccccc2CC12CCN(c1nc3[nH]nc(C4CCCc5ncccc54)c3c(=O)[nH]1)CC2 (stereo partly drawn) [Example 108, 6-((S)-1-amino-1,3-dihydrospiro[indene-2,4′-piperidin]-1′-yl)-3-(5,6,7,8-tetrahydroquinolin-5-yl)-1,5-dihydro-4H-pyrazolo[3,4-d]pyrimidin-4-one]
> 60 |  | C[C@@H]1OCC2(CCN(c3nc4[nH]nc(C5(c6ccc(C(F)(F)F)cc6)CC5)c4c(=O)[nH]3)CC2)[C@@H]1N [Example 296, 6-((3S,4S)-4-amino-3-methyl-2-oxa-8-azaspiro[4.5]decan-8-yl)-3-(1-(4-(trifluoromethyl)phenyl)cyclopropyl)-1,5-dihydro-4H-pyrazolo[3,4-d]pyrimidin-4-one]
20 to 60 |  | C[C@@H]1OCC2(CCN(c3nc4[nH]nc(C5(c6ccccc6)CC5)c4c(=O)n3C)CC2)[C@@H]1N [Example 272, 6-((3S,4S)-4-amino-3-methyl-2-oxa-8-azaspiro[4.5]decan-8-yl)-5-methyl-3-(1-phenylcyclopropyl)-1,5-dihydro-4H-pyrazolo[3,4-d]pyrimidin-4-one]
≤ 20 |  | N[C@@H]1c2ccccc2CC12CCN(c1nc3[nH]nc(C4=C(F)CCc5nc(Cl)ccc54)c3c(=O)[nH]1)CC2 [Example 188, (S)-6-(1-amino-1,3-dihydrospiro[indene-2,4′-piperidin]-1′-yl)-3-(2-chloro-6-fluoro-7,8-dihydroquinolin-5-yl)-1,5-dihydro-4H-pyrazolo[3,4-d]pyrimidin-4-one]
20 to 60 |  | C[C@@H]1OCC2(CCN(c3nc4[nH]nc(C5(c6cccc(C#N)c6)CC5)c4c(=O)[nH]3)CC2)[C@@H]1N [Example 290, 3-(1-(6-((3S,4S)-4-amino-3-methyl-2-oxa-8-azaspiro[4.5]decan-8-yl)-4-oxo-4,5-dihydro-1H-pyrazolo[3,4-d]pyrimidin-3-yl)cyclopropyl)benzonitrile]
20 to 60 |  | CC1(C)C=C(c2n[nH]c3nc(N4CCC5(CC4)Cc4ccccc4[C@H]5N)[nH]c(=O)c23)c2cnc(C3CC3)nc2C1 [Example 148, (S)-6-(l-amino-1,3-dihydrospiro[indene-2,4'-piperidin]-1′-yl)-3-(2-cyclopropyl-7,7-dimethyl-7,8-dihydroquinazolin-5-yl)-1,5-dihydro-4H-pyrazolo[3,4-d]pyrimidin-4-one]
